Measured values published in patent US20240173312A1, “Pharmaceutical Composition Comprising a Benzoheterocyclic Compound and Androgen Receptor Pathway Modulator and Application Thereof” (KANGPU BIOPHARMACEUTICALS, LTD., priority 2015, published 2024).
Read-outs that look alike come from different tables or passages of the source.

How the values were obtained:
[1] = test system: Vcap cells (androgen receptor (+) prostate cancer cells)
Procedure: (§1) In vitro test of the inhibition effect of the compound in combination with androgen receptor pathway modulators and the like on the prostate cancer cell proliferation.
(§2) The tested compounds were used alone or in combination with other androgen receptor pathway modulators respectively. […] After that, 100 μl of CellTiter-Glo® cell viability assay reagent (Promega, catalogue number G7570) was added to each well and mixed well on a vibrator for 10 minutes to induce cell lysis. The 96-well plate was placed at room temperature for 10 minutes, so as to stabilize its luminescence signal. A white bottom membrane was pasted on the bottom of the plate and the plate was tested using EnSpire.

[2] = test system: Vcap cells (androgen receptor (+) prostate cancer cells); experiment: CTG cell proliferation assay (CellTiter-Glo)
Procedure: as §1, §2

[3] = Homo sapiens, VCaP, 120 h, read-out: Survival rate of Vcap cells, Table 3, tested compound alone, 0.1 μM
[4] = Homo sapiens, VCaP, 120 h, read-out: Survival rate of Vcap cells, Table 3, tested compound alone, 1.0 μM
[5] = Homo sapiens, VCaP, 120 h, read-out: Survival rate of Vcap cells, Table 3, tested compound alone, 10 μM
[6] = Homo sapiens, VCaP, 120 h, read-out: Survival rate of Vcap cells, Table 4, tested compound alone, 0.1 μM
[7] = Homo sapiens, VCaP, 120 h, read-out: Survival rate of Vcap cells, Table 4, tested compound alone, 1 μM
[8] = Homo sapiens, VCaP, 120 h, read-out: Survival rate of Vcap cells, Table 4, tested compound alone, 10 μM
[9] = Homo sapiens, VCaP, 120 h, read-out: Survival rate of Vcap cells, Table 5, tested compound alone, 0.1 μM
[10] = Homo sapiens, VCaP, 120 h, read-out: Survival rate of Vcap cells, Table 5, tested compound alone, 1.0 μM
[11] = Homo sapiens, VCaP, 120 h, read-out: Survival rate of Vcap cells, Table 5, tested compound alone, 10 μM
[12] = Homo sapiens, VCaP, 120 h, read-out: Vcap cell proliferation inhibition rate
[13] = Table 3, tested compound 0.1 μM in combination with 1 μM ARN-509
[14] = Table 3, tested compound 0.1 μM in combination with 1 μM Enzalutamide
[15] = Table 3, tested compound 1.0 μM in combination with 1 μM ARN-509
[16] = Table 3, tested compound 1.0 μM in combination with 1 μM Enzalutamide
[17] = Table 3, tested compound 10 μM in combination with 1 μM ARN-509
[18] = Table 3, tested compound 10 μM in combination with 1 μM Enzalutamide
[19] = Table 3, tested compound alone, 1.0 μM
[20] = Table 4, tested compound 0.1 μM in combination with 1 μM Abiraterone acetate
[21] = Table 4, tested compound 0.1 μM in combination with 1 μM Galeterone
[22] = Table 4, tested compound 1 μM in combination with 1 μM Abiraterone acetate
[23] = Table 4, tested compound 1 μM in combination with 1 μM Galeterone
[24] = Table 4, tested compound 10 μM in combination with 1 μM Abiraterone acetate
[25] = Table 4, tested compound 10 μM in combination with 1 μM Galeterone
[26] = Table 4, tested compound alone, 1 μM
[27] = Table 5, tested compound 0.1 μM in combination with 1 μM ODM-201
[28] = Table 5, tested compound 1.0 μM in combination with 1 μM ODM-201
[29] = Table 5, tested compound 10 μM in combination with 1 μM ODM-201
[30] = Table 5, tested compound alone, 1.0 μM

Nc1cccc2c1CN(C1CCC(=O)NC1=O)C2=O (centres unmarked) [B001]
inhibition [1]: 21.4%
viability at 0.1 µM [2, 3]: 92%
viability at 1 µM [2, 4]: 82.8%
viability at 10 µM [2, 5]: 81.9%
viability at 0.1 µM [2, 6]: 92%
viability at 1 µM [2, 7]: 82.8%
viability at 10 µM [2, 8]: 81.9%
viability at 0.1 µM [2, 9]: 87.7%
viability at 1 µM [2, 10]: 75.3%
viability at 10 µM [2, 11]: 72.3%
viability at 0.1 µM ([2]; Homo sapiens, VCaP, 120 h, read-out: Survival rate of Vcap cells, Table 9, tested compound alone, 0.1 μM): 83.9%
viability at 1 µM ([2]; Homo sapiens, VCaP, 120 h, read-out: Survival rate of Vcap cells, Table 9, tested compound alone, 1.0 μM): 74.8%
viability at 10 µM ([2]; Homo sapiens, VCaP, 120 h, read-out: Survival rate of Vcap cells, Table 9, tested compound alone, 10 μM): 69.1%
viability at 0.1 µM ([2]; Homo sapiens, VCaP, 120 h, read-out: Survival rate of Vcap cells, Table 10, tested compound alone, 0.1 μM): 83.9%
viability at 1 µM ([2]; Homo sapiens, VCaP, 120 h, read-out: Survival rate of Vcap cells, Table 10, tested compound alone, 1.0 μM): 74.7%
viability at 10 µM ([2]; Homo sapiens, VCaP, 120 h, read-out: Survival rate of Vcap cells, Table 10, tested compound alone, 10 μM): 69.1%
inhibition at 0.41 µM [2, 12]: 18.7%
inhibition at 1.23 µM [2, 12]: 20.7%
inhibition at 11.11 µM [2, 12]: 20.9%
inhibition at 33.33 µM [2, 12]: 22%
inhibition at 100 µM [2, 12]: 19.6%
Survival rate of Vcap cells [2, 13]: 42.0%
Survival rate of Vcap cells [2, 14]: 40.3%
Survival rate of Vcap cells [2, 15]: 34.7%
Survival rate of Vcap cells [2, 16]: 35.6%
Survival rate of Vcap cells [2, 17]: 33.5%
Survival rate of Vcap cells [2, 18]: 33.7%
Survival rate of Vcap cells [2, 19]: 82.8%
Survival rate of Vcap cells [2, 20]: 78.5%
Survival rate of Vcap cells [2, 21]: 51.1%
Survival rate of Vcap cells [2, 22]: 68.0%
Survival rate of Vcap cells [2, 23]: 43.3%
Survival rate of Vcap cells [2, 24]: 62.9%
Survival rate of Vcap cells [2, 25]: 42.8%
Survival rate of Vcap cells [2, 26]: 82.8%
Survival rate of Vcap cells [2, 27]: 52.7%
Survival rate of Vcap cells [2, 28]: 41.4%
Survival rate of Vcap cells [2, 29]: 37.5%
Survival rate of Vcap cells [2, 30]: 75.3%
Survival rate of Vcap cells ([2]; Table 9, tested compound 0.1 μM in combination with 1 μM ARN-509): 50.9%
Survival rate of Vcap cells ([2]; Table 9, tested compound 0.1 μM in combination with 1 μM Enzalutamide): 52.1%
Survival rate of Vcap cells ([2]; Table 9, tested compound 1.0 μM in combination with 1 μM ARN-509): 42.6%
Survival rate of Vcap cells ([2]; Table 9, tested compound 1.0 μM in combination with 1 μM Enzalutamide): 42.3%
Survival rate of Vcap cells ([2]; Table 9, tested compound 10 μM in combination with 1 μM ARN-509): 40.9%
Survival rate of Vcap cells ([2]; Table 9, tested compound 10 μM in combination with 1 μM Enzalutamide): 38.4%
Cell survival rate ([2]; notes of Table 9: 1.0 μM tested compound in combination with 1.0 μM Enzalutamide): 42.6%

O=C1CCC(N2Cc3c(OCc4ccc(CN5CCOCC5)cc4)cccc3C2=O)C(=O)N1 (centres unmarked) [D107]
viability at 0.1 µM [2, 3]: 85.3%
viability at 1 µM [2, 4]: 77.2%
viability at 10 µM [2, 5]: 69.3%
viability at 0.1 µM [2, 6]: 85.3%
viability at 1 µM [2, 7]: 77.2%
viability at 10 µM [2, 8]: 69.3%
Survival rate of Vcap cells [2, 13]: 37.0%
Survival rate of Vcap cells [2, 14]: 37.3%
Survival rate of Vcap cells [2, 15]: 36.3%
Survival rate of Vcap cells [2, 16]: 35.0%
Survival rate of Vcap cells [2, 17]: 34.2%
Survival rate of Vcap cells [2, 18]: 32.3%
Survival rate of Vcap cells [2, 19]: 77.2%
Survival rate of Vcap cells [2, 20]: 66.0%
Survival rate of Vcap cells [2, 21]: 43.9%
Survival rate of Vcap cells [2, 22]: 61.7%
Survival rate of Vcap cells [2, 23]: 42.4%
Survival rate of Vcap cells [2, 24]: 59.6%
Survival rate of Vcap cells [2, 25]: 40.0%
Survival rate of Vcap cells [2, 26]: 77.2%

O=C1CC[C@H](N2Cc3c(OCc4ccc(CN5CCOCC5)cc4)cccc3C2=O)C(=O)N1 [D108]
viability at 0.1 µM [2, 9]: 73%
viability at 1 µM [2, 10]: 67.3%
viability at 10 µM [2, 11]: 58.5%
Survival rate of Vcap cells [2, 27]: 42.7%
Survival rate of Vcap cells [2, 28]: 40.1%
Survival rate of Vcap cells [2, 29]: 32.8%
Survival rate of Vcap cells [2, 30]: 67.3%

Nc1cccc2c1C(=O)N(C1CCC(=O)NC1=O)C2=O (centres unmarked) [F001]
viability at 0.1 µM [2, 9]: 79.7%
viability at 1 µM [2, 10]: 59.9%
viability at 10 µM [2, 11]: 55.7%
Survival rate of Vcap cells [2, 27]: 49.4%
Survival rate of Vcap cells [2, 28]: 40.9%
Survival rate of Vcap cells [2, 29]: 37.3%
Survival rate of Vcap cells [2, 30]: 59.9%

C[C@]12CC[C@H](O)CC1=CC[C@@H]1[C@@H]2CC[C@]2(C)C(n3cnc4ccccc43)=CC[C@@H]12 [Galeterone, reference compound]
Survival rate of Vcap cells ([2]; Table 4, tested compound alone, 0.1 μM): 95.9%
Survival rate of Vcap cells [2, 26]: 62.8%
Survival rate of Vcap cells ([2]; Table 4, tested compound alone, 10 μM): 19.3%
